This is an account of results in article PMC6149668, “In Silico Identification and In Vitro Evaluation of Natural Inhibitors of Leishmania major Pteridine Reductase I” (Molecules : A Journal of Synthetic Chemistry and Natural …, 2017).

The target in series [1] is T1, recombinant LmPTR1 (Leishmania major pteridine reductase I) (Leishmania major, UniProt Q01782).
T1 construct: poly-His (N); made in house; host or cells: E. coli BL21 (DE3)
Put plainly: biochemical. The following applies: for % Inhibition at c = 50 µM: inhibitor 50 µM. As to the method:
(§1) In order to assess the inhibitory activity of the compounds identified in silico, spectrophotometric inhibition assays were performed on recombinant LmPTR1, measuring the decreasing concentration of NADPH at 340 nm as a linear kinetic parameter for LmPTR1 activity at saturating concentrations of NADPH (co-substrate) and folic acid (substrate). First, each in silico hit was added to a concentration of 50 µM, and the resulting linear plots of absorbance vs. time were compared with those recorded in the absence of an inhibitor.
The determination of the inhibitory activity of the in silico hits was carried out by a UV-Vis spectrophotometric assay on recombinantly produced LmPTR1. In order to assess the catalytic activity of LmPTR1, the oxidation of NADPH to NADP^+ was followed with a Hitachi U-2900 UV-Vis spectrophotometer at 340 nm as a linear kinetic parameter. Reference measurements without the addition of inhibitors were used to determine the full catalytic activity (100% value), and subsequent measurements with inhibitory compounds were calculated accordingly. The total assay volume of 1 mL consisted of sodium phosphate buffer (50 mM NaH2PO4, 100 mM NaCl, pH 6), 250 µM NADPH, 35 µg LmPTR1, 22.5 µM folic acid, and varying inhibitor concentrations. The tested inhibitors were dissolved in DMSO (10 mM stock solutions), and appropriate volumes were added to the assays to obtain the desired assay concentrations in such a way that a DMSO concentration between 0.1–1% resulted. […] Initial tests were performed at an inhibitor concentration of 50 µM in triplicate.

Series [2] can be described thus: Solubility under the LmPTR1 assay conditions. In kind it is physicochemical. The following applies: sodium phosphate buffer pH 6, DMSO 0.1–1%. As to the method:
as §1, with “inhibitor. […] For 2,3-dehydrosilybin A (1), complete inhibition could not be achieved. The maximum of inhibition achieved with this compound was 64% at a concentration of 50 µM. […] Plots of the inhibitory activity as a function of concentration for compounds 1 to 6 are shown in the Supplementary Materials Figures S10–S15, and the resulting IC50 and EC50 values are reported in Table 1.” for “inhibitor.”
The determination of the inhibitory activity of the in silico hits was carried out by a UV-Vis spectrophotometric assay on recombinantly produced LmPTR1. […] Reference measurements without the addition of inhibitors were used to determine the full catalytic activity (100% value), and subsequent measurements with inhibitory compounds were calculated accordingly. […] No inhibition of LmPTR1 could be detected by DMSO itself at the mentioned concentrations. […]

[3] abbreviates: pH 6, inhibitor 50 µM, 250 µM NADPH, 22.5 µM folic acid, pH 6, triplicate, n.i. = no inhibition at 50 µM, read-out: % Inhibition at c = 50 µM.
Setting [4] is: in brackets: 95% confidence interval, n = 4 to 7 concentrations, non-linear regression, read-out: IC50.
Where [5] appears, read: 250 µM NADPH, 22.5 µM folic acid, pH 6, triplicate, n.i. = no inhibition at 50 µM.

Read-outs that look alike come from different tables or passages of the source.

T1 sequence (Q01782 whole entry): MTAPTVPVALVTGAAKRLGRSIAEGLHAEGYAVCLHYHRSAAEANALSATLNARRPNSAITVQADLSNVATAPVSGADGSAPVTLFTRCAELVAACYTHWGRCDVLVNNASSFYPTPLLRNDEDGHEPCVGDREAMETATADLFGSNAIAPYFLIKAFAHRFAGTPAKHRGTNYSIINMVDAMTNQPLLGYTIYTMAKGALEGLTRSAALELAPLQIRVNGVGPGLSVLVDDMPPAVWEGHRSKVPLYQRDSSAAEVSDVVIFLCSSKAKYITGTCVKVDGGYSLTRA

Usually EC50 stands for the midpoint of the concentration-response curve. As usually defined, the inhibition is how much of the control response was suppressed. Turning to `COc1cc([C@H]2Oc3cc(-c4oc5cc(O)cc(O)c5c(=O)c4O)ccc3O[C@@H]2CO)ccc1O` [2,3-dehydrosilybin A], the EC50 in series [1] is 7.3 µM. The inhibition at 50 µM in series [1] (at a concentration of 50 µM, concentration-effect curve, read-out: maximum of inhibition achieved) is 64%; in series [1] (setting [3]), > 50%. The “solubility under the assay conditions” value in series [2] is given as “limited solubility”. Take `O=C(O[C@@H]1Cc2c(O)cc(O)cc2O[C@@H]1c1ccc(O)c(O)c1)c1cc(O)c(O)c(O)c1` [(−)-epicatechin-3-gallate]: the inhibition at 50 µM in series [1] (setting [3]) was found to be 24%. Usually IC50 stands for the concentration that inhibits the measured activity by half. For `O=c1cc(-c2ccc(O)cc2)oc2cc(OC3OC(CO)C(O)C(O)C3O)cc(O)c12` (stereo not shown) [apigenin-7-glucoside], the IC50 in series [1] was 43.5 µM. Besides, in series [1] (setting [3]), the inhibition at 50 µM is > 50%. As to `CC(C)=CCc1c(O)cc2oc3cc(O)c(O)c(CCC(C)(C)O)c3c(=O)c2c1O` [garcinone C], the IC50 in series [1] (setting [4]) was found to be 26.3 µM.

Turning to `COc1cc([C@@H]2Oc3ccc([C@H]4Oc5cc(O)cc(O)c5C(=O)[C@@H]4O)cc3O[C@H]2CO)ccc1O` [isosilybin B], the inhibition at 50 µM in series [1] (pH 6, read-out: % Inhibition at c = 50 µM) was 26%. With `COc1cc(O)c(CC=C(C)C)c2c1C(=O)CC(c1ccc(O)cc1)O2` (stereo not shown) [isoxanthohumol], in series [1] (setting [3]), the inhibition at 50 µM is 22%.

Broadly, the % Inhibition is the relative decrease from the control value, in per cent. For `COc1ccc([C@H]2OC[C@H]3[C@@H]2CO[C@@H]3c2cc(OC)c(OC)c(OC)c2)cc1OC` [magnolin], the “% Inhibition at c = 50 µM” value in series [1] (setting [5]) is on record as “n.i”. Take `O=c1c(O)c(-c2cc(O)c(O)c(O)c2)oc2cc(O)cc(O)c12` [myricetin]: the IC50 in series [1] (setting [4]) amounted to 21 µM. For the same compound, the inhibition at 50 µM in series [1] (pH 6, read-out: % Inhibition at c = 50 µM, inhibitor 50 µM, 250 µM NADPH, 22.5 µM folic acid, pH 6, triplicate, n.i. = no inhibition at 50 µM) was > 50%. `O=C(/C=C/c1ccc(O)c(O)c1)O[C@H](Cc1ccc(O)c(O)c1)C(=O)O` [rosmarinic acid]: the inhibition at 50 µM in series [1] (setting [3]) was 20%. As for `O=C(/C=C/c1ccc(O)c(O)c1/C=C/c1ccc(O)c(O)c1)O[C@H](Cc1ccc(O)c(O)c1)C(=O)O` [salvianolic acid A], the IC50 in series [1] was 42.2 µM. Also, the inhibition at 50 µM in series [1] (setting [3]) is > 50%.

`COc1cc([C@H]2Oc3cc([C@H]4Oc5cc(O)cc(O)c5C(=O)[C@@H]4O)ccc3O[C@@H]2CO)ccc1O` [silybin A]: in series [1] (setting [3]), the inhibition at 50 µM worked out at 14%. Consider `COc1cc([C@@H]2Oc3cc([C@H]4Oc5cc(O)cc(O)c5C(=O)[C@@H]4O)ccc3O[C@H]2CO)ccc1O` [silybin B], for which, in series [1] (setting [3]), the inhibition at 50 µM was 19%.

On to `COc1cc([C@@H]2Oc3c(O)cc([C@H]4Oc5cc(O)cc(O)c5C(=O)[C@@H]4O)cc3[C@H]2CO)ccc1O` [silychristin], for which, in series [1] (setting [3]), the inhibition at 50 µM came to 24%. Regarding `C=C(C)[C@H](CC=C(C)C)Cc1c(O)cc(O)c2c1O[C@H](c1ccc(O)cc1O)CC2=O` [sophoraflavanone G], in series [1] (setting [4]), the IC50 came to 19.2 µM.

As for icariside II, the “% Inhibition at c = 50 µM” value in series [1] (setting [5]) turned out to be 35%.

Turning to phillyrin, the “% Inhibition at c = 50 µM” value in series [1] (setting [5]) is listed as “n.i”.
